Assays:
[1] = test system: caerulein-induced acute pancreatitis (AP) model; assay: Caerulein-induced acute pancreatitis (AP) mouse model; format: in vivo, BALB/c mice; settings: caerulein AP mice; for Pathological score: Area of necrosis / Pathological score: Edema / Pathological score: Hemorrhage / Pathological score: Inflammation: Schmidt's scoring standard; for Edema of the pancreas versus model group (in words): FIG. 12; for Inflammation of the pancreas versus model group (in words): FIG. 13; for Level of amylase versus model control / Level of lipase versus model control: doses of 0.025, 0.25, 2.5 and 25 mg/kg; for Level of amylase versus model control: FIG. 10, P<0.001; for Level of lipase versus model control: FIG. 11, P<0.001
Method: Male BALB/c mice, aged 6-8 weeks, were accumulated for more than 7 days. After fasting overnight, 10 animals were randomly selected as normal control. The remaining animals were injected with caerulein 50 μg/kg intraperitoneally every 1 hour for 10 times to induce acute pancreatitis, and they were randomly divided into model control group and peptide 12 treatment groups with the dosage of 0.025, 0.25, 2.5 and 25 mg/kg respectively, there were 10 mice in each group. Mice were given corresponding doses of peptide 12 or normal saline 5 minutes before the fourth injection of caerulein.
The experiment was finished one hour after the 10th injection of caerulein, blood samples were collected for the determination of amylase and lipase levels. Pancreas were weighed and fixed in 10% formalin solution for subsequent pathological analysis.
The pancreatic index was calculated as pancreatic weight/body weight, which reflected the severity of pancreatic edema. The statistical results were shown in FIG. 9, in which ### means P<0.001 compared with the normal control group; ** means P<0.01 compared with the model control group, *** means P<0.001 compared with the model control group. […] It should be noted that in FIG. 10, ### means P<0.001 compared with the normal control group; *** means P<0.001 compared with the model control group; in FIG. 11, ### means P<0.001 compared with the normal control group; *** means P<0.001 compared with the model control group.
The severity of pancreatic injury was assessed by preparing HE slices of pancreas and using Schmidt's scoring standard to evaluate the pathological changes of pancreatic edema, inflammation, hemorrhage and necrosis.

[2] = test system: sodium taurocholate-induced severe acute pancreatitis (SAP) rat model; assay: Sodium taurocholate-induced severe acute pancreatitis (SAP) rat model; format: in vivo; settings: SAP rats; for Survival Rate: 3-day experiment; for Survival rate of model animals versus model control (in words): all three doses (0.05, 0.25, 1.25 mg/kg); for Pathological score: Area of necrosis / Pathological score: Edema / Pathological score: Hemorrhage / Pathological score: Inflammation: Schmidt's scoring standard 0-4; for Pathological score: Total damage: sum of the four items
Source text: After at least 7 days of accumulation period, 60 female and 70 male Sprague-Dawley (SD) rats were included in the study. Five females and eight males were randomly selected as the control group. Another five females and eight males were randomly selected as the sham group, the abdominal cavity was opened for each of the rats in the sham group, and a cotton swab was used to gently flip the duodenum and pancreas, then the abdominal muscle and skin were sutured after the completion of the operation The remaining animals were assigned to establish the severe acute pancreatitis (SAP) rat model using the method of retrograde injection of sodium taurocholate solution with 35 mg/kg dosage into the biliopancreatic duct. The model animals were randomly divided into 4 groups of 24 rats each (male:female=1:1) on the day after model establishment, which were the model control group (vehicle), and low dose group of peptide 12 (0.05 mg/kg), middle dose group of peptide 12 (0.25 mg/kg) and high dose group of peptide 12 (1.25 mg/kg), peptide 12 was dissolved in saline.
The animals were subcutaneously injected once on the day after the establishment of the model, once on the second day, for a total of 2 consecutive days, and the experimental period was 3 days. During the experiment, the animals were observed by cage, including if there is any animal death or near death, mental state, behavioral activities, fecal characteristics, skin, hair, eyes, ears, nose, abdomen, external genitals, anus, limbs, feet, respiration, etc. At the end of the experiment, all the surviving rats were weighed and blood samples were collected to detect the levels of amylase, calcium and lipase in serum of rats in each group. The general anatomical observation was made, focusing on the status of pancreas, gastrointestinal tract, ascites, bile duct obstruction, pulmonary congestion and saponification spots. The pancreas was preserved in 10% formalin fixative for further pathological analysis.
The severity of pancreatic injury was assessed by preparing HE slices of pancreas and using Schmidt's scoring standard to evaluate the pathological changes of pancreatic edema, inflammation, hemorrhage and necrosis. The total pancreatic injury calculated as the sum of the above four items.

[3] = listed as Ac-IGLHD PSHGT LPAGS-OH

Substance: Ac-IGLHDPSHGTLPAGS-OH [Peptide 12]
- Pathological score: Area of necrosis ([1]; 0.025 mg/kg): 0.00 ± 0.00
- Pathological score: Edema ([1]; 0.025 mg/kg): 1.50 ± 0.84
- Pathological score: Hemorrhage ([1]; 0.025 mg/kg): 0.00 ± 0.00
- Pathological score: Inflammation ([1]; 0.025 mg/kg): 1.33 ± 0.52
- Pathological score: Area of necrosis ([1]; 0.25 mg/kg): 0.00 ± 0.00
- Pathological score: Edema ([1]; 0.25 mg/kg): 1.67 ± 0.82
- Pathological score: Hemorrhage ([1]; 0.25 mg/kg): 0.00 ± 0.00
- Pathological score: Inflammation ([1]; 0.25 mg/kg): 1.17 ± 0.75
- Pathological score: Area of necrosis ([1]; 2.5 mg/kg): 0.00 ± 0.00
- Pathological score: Edema ([1]; 2.5 mg/kg): 1.17 ± 1.17
- Pathological score: Hemorrhage ([1]; 2.5 mg/kg): 0.00 ± 0.00
- Pathological score: Inflammation ([1]; 2.5 mg/kg): 0.83 ± 0.75
- Pathological score: Area of necrosis ([1]; 25 mg/kg): 0.00 ± 0.00
- Pathological score: Edema ([1]; 25 mg/kg): 1.50 ± 0.55
- Pathological score: Hemorrhage ([1]; 25 mg/kg): 0.33 ± 0.82
- Pathological score: Inflammation ([1]; 25 mg/kg): 2.17 ± 0.75
- Edema of the pancreas versus model group (in words) [1, 3]: significantly reduced
- Edema of the pancreas versus model group (in words) ([1]; listed as peptide 12): alleviated
- Inflammation of the pancreas versus model group (in words) [1, 3]: significantly reduced
- Inflammation of the pancreas versus model group (in words) ([1]; listed as peptide 12): alleviated
- Level of amylase versus model control [1]: significantly lowered
- Level of amylase versus model control [1, 3]: significantly reduced
- Level of lipase versus model control [1]: significantly lowered
- Level of lipase versus model control [1, 3]: significantly reduced
- Pancreatic index (pancreatic weight/body weight) versus model control ([1]; doses of 0.025, 0.25 and 2.5 mg/kg, dose dependent, FIG. 9): significantly decreased
- Ratio (treatment group/model group) of survival ([2]; 0.05 mg/kg): 1.11
- Survival Rate ([2]; 0.05 mg/kg subcutaneous once daily for 2 days): 41.7%
- Ratio (treatment group/model group) of survival ([2]; 0.25 mg/kg): 1.33
- Survival Rate ([2]; 0.25 mg/kg subcutaneous once daily for 2 days): 50.0%
- Ratio (treatment group/model group) of survival ([2]; 1.25 mg/kg): 1.78
- Survival Rate ([2]; 1.25 mg/kg subcutaneous once daily for 2 days, 1.25 mg/kg): 66.7%
- Pathological changes of pancreas caused by sodium taurocholate ([2]; FIG. 4 to FIG. 8, dose-dependent): reduce
- Survival rate of model animals versus model control (in words) [2, 3]: significantly increase
- Survival rate of model animals versus model control (in words) ([2]; listed as peptide 12): improved
- Pathological score: Area of necrosis ([2]; high dose (1.25 mg/kg)): 1.13 ± 0.85
- Pathological score: Edema ([2]; high dose (1.25 mg/kg)): 1.21 ± 0.96
- Pathological score: Hemorrhage ([2]; high dose (1.25 mg/kg)): 1.15 ± 0.83
- Pathological score: Inflammation ([2]; high dose (1.25 mg/kg)): 2.67 ± 1.00
- Pathological score: Total damage ([2]; high dose (1.25 mg/kg)): 6.15 ± 2.69
- Pathological score: Area of necrosis ([2]; low dose (0.05 mg/kg)): 1.63 ± 0.74
- Pathological score: Edema ([2]; low dose (0.05 mg/kg)): 1.33 ± 0.86
- Pathological score: Hemorrhage ([2]; low dose (0.05 mg/kg)): 1.73 ± 0.89
- Pathological score: Inflammation ([2]; low dose (0.05 mg/kg)): 2.90 ± 1.22
- Pathological score: Total damage ([2]; low dose (0.05 mg/kg)): 7.60 ± 3.07
- Pathological score: Area of necrosis ([2]; middle dose (0.25 mg/kg)): 1.11 ± 0.78
- Pathological score: Edema ([2]; middle dose (0.25 mg/kg)): 1.44 ± 0.87
- Pathological score: Hemorrhage ([2]; middle dose (0.25 mg/kg)): 1.31 ± 0.87
- Pathological score: Inflammation ([2]; middle dose (0.25 mg/kg)): 2.83 ± 0.93
- Pathological score: Total damage ([2]; middle dose (0.25 mg/kg)): 6.69 ± 2.53
- Mental state and activity state of the surviving animals versus model control ([2]; treatment groups 0.05, 0.25, 1.25 mg/kg): significantly better
- General anatomy of surviving animals (pancreas edema and liquefaction, gastrointestinal obstruction, ascites volume, bile duct obstruction, pulmonary congestion, saponification spots) ([2]; treatment groups versus control group): improved with varying degrees
- Level of amylase in blood versus model control ([2]; treatment groups, FIG. 2): decreased
- Level of lipase in blood versus model control ([2]; treatment groups, FIG. 3): decreased

From patent US10772929B2, “Use of peptide compounds in treating acute pancreatitis” (SHENZHEN HIGHTIDE BIOPHARMACEUTICAL, LTD., priority 2017, dated 2020)
